According to US20100226857A1, “TUMOR CELL DIFFERENTIATION AGENTS AS CHEMICAL INHIBITORS AND TREATMENTS FOR INTRACELLULAR PARASITES” (priority 2006, published 2010):
Values after ≈ are worked out from the molar mass of the structure shown. Read-outs that look alike come from different tables or passages of the source.

Assays:
T. gondii tachyzoites [1] = assay: T. gondii tachyzoite proliferation assay in HS68 cells (tachyzoite count); format: cell-based, Toxoplasma gondii; conditions: for times tachyzoites are more sensitive than human tumor cells: tachyzoite IC50 vs literature tumor cell concentrations
Experimental: Parasite propagation—The RH strain of Toxoplasma gondii was grown in BM bovine macrophage cells or HS68 human foreskin fibroblast cells obtained from the American Type Culture Collection (Rockville, Md.). HS68 cells were grown in RPMI 1640 medium (Mediatech, Inc., Herndon, Va.) plus 10% fetal bovine serum (Atlanta Biologicals, Lawrenceville, Ga.), 1 mM sodium pyruvate and 100 U/ml each of penicillin and streptomycin. Parasites were harvested from infected cultures of HS68 cells growing in T-75 cm^2 flasks. After removing the culture medium, the cells were scraped into 5 ml of phosphate-buffered saline and a cell lysate obtained by passing through a 26-gauge needle. To purify the parasites, the cell lysate was filtered through a 3 micron (micrometer) filter.
(§1) Proliferation assays: HS68 cells were replica plated in 48-well dishes, and grown to confluence prior to infection with 5-10×10^4 freshly purified T. gondii tachyzoites/well. After 2 hours, the media and non-infective tachyzoites were removed, and replaced with RPMI medium containing 2% fetal bovine serum plus 1 mM sodium pyruvate, penicillin (100 U), streptomycin (100 U) and test agent or a vehicle control. The proliferation assays were terminated 48-72 hours post-infection when the untreated cells were heavily infected. All of the culture media were removed from the wells, and the tachyzoites in the media were fixed by dilution (1:1) into phosphate-buffered saline containing 10% formaldehyde. The tachyzoites were collected by brief centrifugation (30 seconds, […]) at room temperature using a tabletop microfuge. The tachyzoites were resuspended in 100 ul of phosphate-buffered saline, and duplicate aliquots were counted using a hemocytometer. […] The monolayer of HS68 cells in each well was fixed and stained for 5 minutes using a solution of 50% ethanol-5% formaldehyde-0.1% crystal violet in 0.85% sodium chloride, then rinsed with water, and air-dried. The minimum inhibitory concentration (MIC) of compounds that suppressed Toxoplasma-induced lysis of the HS68 cells was determined visually by counting the number of plaques/well in the monolayer.

T. gondii = assay: Plaque suppression / protection of HS68 monolayer from T. gondii; format: cell-based, Toxoplasma gondii; conditions: for MIC IC50 (ratio MIC/IC50): MIC plaque suppression relative to IC50 tachyzoite count; for state of HS68 monolayer of T. gondii-infected treated cells: 1 uM, 48 hours; for MIC: Toxoplasma gondii, read-out: MIC (uM) Plaque Suppression
Experimental: as §1

Cryptosporidium parvum = assay: Real-time PCR analysis of C. parvum oocyst production in infected HCT-8 cells; format: cell-based; conditions: 48 hours, apicidin 70 ng/ml, SAHA 2.5 ug/ml; for % Reduction in oocysts numbers: vs 0.1% DMSO
Experimental: Monolayer cultures of HCT-8 human colon cells growing in 24-well plastic tissue culture dishes were infected with C. parvum oocysts for 3 hours. […] The cells were harvested, and DNA was extracted. The DNA was analyzed for the production of C. parvum oocysts from the infected cells using real-time PCR and DNA primers that specifically amplify the C. parvum oocysts wall protein (COWP).

[2] = test system: MCF-7 human breast cancer cells; assay: ESR free radical (ROS) measurement in MCF-7 cell suspensions with DMPO; format: cell-based; conditions: for ESR signal indicative of ROS production in MCF-7 cells: 10 uM NSC3852, 8 uM NSC2039
Experimental: Free Radical Measurements: All ESR measurements were conducted using a Bruker EMIR spectrometer (Bruker Instruments Inc., Billerica, Mass.) and a flat-cell assembly. Hyperfine couplings were measured (to 0.1 G) directly from magnetic field separation using potassium tetraperoxochromate (K3CrO8) and 1,1-diphenyl-2-picrylhydrazyl as reference standards. The relative radical concentration was estimated by multiplying half of the peak height by (ΔHpp)^2, where (ΔHpp) represents peak-to-peak width. The Acquisit program was used for data acquisitions and analyses. MCF-7 cells (2.0×10^6 cells/60-mm^2 dish) were harvested 48 h after plating by trypsinization and collected at room temperature by centnfugation (225 g, 5 min). Cells were washed once with ice-cold PBS and resuspended in ice-cold PBS at 2×10^6 cells/ml. Radical production was measured in the presence of the spin trap 5,5-dimethyl-1-pyrroline-N-oxide (DMPO; Aldrich Chemical Co., Milwaukee, Wis.). DMPO (200 mM) and 1×10^6 cells test agents were mixed in 1.0 ml of PBS, incubated at 37° C. for 5 mm, and then transferred to a flat cell for ESR measurements.

MCF-7 cells = assay: Comet assay for DNA damage; format: cell-based, human
Experimental: Comet Analysis: The comet assay is a single-cell gel electrophoresis method for measuring DNA damage. MCF-7 cells (2×10^5/35-mm^2 dish) were treated 12 h after plating. Twenty-four hours later, the cells were harvested and resuspended (1.5×10^5 cells/ml) in ice-cold PBS. The PBS cell suspension (50 ul) was mixed with 500 ul of 42° C. low-melting point agarose, spread evenly (75 ul) onto a Comet Slide (Trevigen, Gaithersburg, Md.), and allowed to harden. The slides were then immersed in ice-cold lysis solution (Trevigen) for 45 mm to lyse the cells and then transferred to freshly prepared alkali solution (300 mM NaOH and 1 mM EDTA, […]) for 45 mM. at room temperature to denature the DNA. Electrophoresis was performed at 4° C. Slides were air-dried overnight at room temperature and then stained with SYBR Green (Trevigen). Comets were visualized by fluorescence microscopy at 630× magnification with the aid of an antifade solution. Comet images were analyzed using the LAI Automated Comet Assay Analysis System (Loats Associates, Inc., Westminster, Md.). DNA damage was quantified in 80 comets per treatment/experiment using the tail moment [Tail moment [(% DNA) (distance traveled)]].

human tumor cell lines = conditions: cited from earlier work
[3] = test system: HS68 human foreskin fibroblast cells; assay: Toxicity to HS68 host cells; format: cell-based; conditions: for toxicity to HS68 cells at highest concentration tested: 10 uM
T. gondii tachyzoites [4] = assay: In vivo acute toxoplasmosis in mice (survival); set-up: species or system Toxoplasma gondii; CD-1 mice; conditions: for control of acute toxoplasmosis in mice: TSA 0.5 mg/kg, SAHA 50 mg/kg, scriptaid 3.5 mg/kg i.p. once daily, valproic acid 300 mg/kg oral daily; for median survival: mice
Experimental: Specifically, female CD-1 mice (20 g) were inoculated in the sub-scapular region with 5,000 T. gondii tachyzoites on Day 0. […] The dose of scriptaid was not optimized in this experiment. In this study, valproic acid was administered orally in the drinking water at a dose of 300 mg/kg. Survival was monitored twice daily beginning on day 9 of the study. The results are depicted graphically in FIG. 5A and in tabular form in FIG. 5B.

[5] = RH strain T. gondii in HS68 cells, 48-well plate, 48-72 hours post-infection, mean+/-SEM, read-out: IC50 (uM) Tachyzoite Count
[6] = RH strain T. gondii in HS68 cells, 48-well plate, mean+/-SEM
[7] = Toxoplasma gondii, RH strain T. gondii in HS68 cells, 48-well plate, 48-72 hours post-infection, mean+/-SEM, read-out: IC50 (uM) Tachyzoite Count

4-phenylbutyrate
IC50 (T. gondii tachyzoites [1]; [5]): 5350 ± 2750 µM | MIC IC50 (ratio MIC/IC50) (T. gondii): 3.1 | MIC (uM) Plaque Suppression (T. gondii; [6]): 16,700 ± 3300 uM

CCC(=O)CCCCC[C@@H]1NC(=O)[C@H]2CCCCN2C(=O)[C@H]([C@@H](C)CC)NC(=O)[C@H](Cc2cn(OC)c3ccccc23)NC1=O [Apicidin]
number of oocysts/ml (mean ± S.D. n = 6) (Cryptosporidium parvum): 517.7 ± 417.1 oocysts/ml | % Reduction in oocysts numbers (Cryptosporidium parvum): 92.2%

Oc1cccc2cccnc12 [NSC2039, 8-quinolinol]
ESR signal indicative of ROS production in MCF-7 cells [2]: no signal was produced | DNA damage (comet tail moment) (MCF-7 cells): did not induce DNA damage

O=C(CCCCCCC(=O)Nc1ccccc1)NO [SAHA, suberoylanilide hydroxamic acid]
times tachyzoites are more sensitive than human tumor cells (T. gondii tachyzoites [1]): 10-200 times | number of oocysts/ml (mean ± S.D. n = 6) (Cryptosporidium parvum): 252.8 ± 280 oocysts/ml | % Reduction in oocysts numbers (Cryptosporidium parvum): 96.2% | concentration reducing tumor cell numbers and inducing tumor cell apoptosis (human tumor cell lines; variety of human tumor cell lines in tissue culture): 1 to 20 µM | state of HS68 monolayer of T. gondii-infected treated cells (T. gondii): completely intact | MIC (T. gondii; [6]): 0.4 ± 0.1 µM (≈ 0.106 µg/mL) | toxicity to HS68 cells at highest concentration tested [3]: no discernable toxicity | control of acute toxoplasmosis in mice (T. gondii tachyzoites [4]): showed in vivo efficacy

O=C(CCCCCCC(=O)NO)NO [SBHA, suberic bishydroxamic acid]
IC50 (T. gondii tachyzoites [1]; [5]): 0.213 ± 0.11 µM | ESR signal indicative of ROS production in MCF-7 cells [2]: rapid and robust ESR signals | MIC IC50 (ratio MIC/IC50) (T. gondii): 58.7 | MIC (uM) Plaque Suppression (T. gondii; [6]): 12.5 ± 5 µM (≈ 2.55 µg/mL)

O=C(CCCCCN1C(=O)c2cccc3cccc(c23)C1=O)NO [Scriptaid]
IC50 (T. gondii tachyzoites [1]; [7]): 0.039 ± 0.011 µM | IC50 (T. gondii tachyzoites [1]; Toxoplasma gondii, RH strain in HS68 cells, average of independent experiments, read-out: IC50 T. gondii tachyzoites): 0.037 µM | low concentrations stimulating tachyzoite numbers (T. gondii tachyzoites [1]; biphasic response, FIG. 4): 1 to 10 nM | times tachyzoites are more sensitive than human tumor cells (T. gondii tachyzoites [1]): 80-1500 times | IC50 levels reducing tumor cell proliferation in vitro (human tumor cell lines): 1 to 20 µg/mL | IC50 (human tumor cell lines; read-out: IC50 levels reducing tumor cell proliferation in vitro): 3 to 60 µM | state of HS68 monolayer of T. gondii-infected treated cells (T. gondii): completely intact | MIC IC50 (ratio MIC/IC50) (T. gondii): 5.8 | MIC (T. gondii; [6]): 0.225 ± 0.025 µM (≈ 0.0734 µg/mL) | toxicity to HS68 cells at highest concentration tested [3]: non-toxic | control of acute toxoplasmosis in mice (T. gondii tachyzoites [4]): showed in vivo efficacy | daily dose that can extend the life of mice infected with RH T. gondii (T. gondii tachyzoites [4]; for 14 days): about 3.5 mg/kg

CCCC(=O)[O-].[Na+] [Sodium butyrate, sodium butyrate]
IC50 (T. gondii tachyzoites [1]; Toxoplasma gondii, Hs68, read-out: IC50 (uM) Tachyzoite Count): 1000 ± 455 µM | IC50 (T. gondii tachyzoites [1]; Toxoplasma gondii, Hs68, read-out: IC50 range of carboxylate inhibitors): 1000 to 5000 µM | MIC IC50 (ratio MIC/IC50) (T. gondii): 4.2 | MIC (T. gondii): 4200 ± 800 µM

CC(/C=C/C(=O)NO)=C\[C@@H](C)C(=O)c1ccc(N(C)C)cc1 [TSA, trichostatin A]
IC50 (T. gondii tachyzoites [1]; [5]): 0.041 ± 0.001 µM | concentration that eliminated tachyzoites and plaque formation (T. gondii tachyzoites [1]; T. gondii infected HS68 cells): 200 nM | concentrations giving dramatic decrease in tachyzoite numbers (T. gondii tachyzoites [1]; p<0.05): > 100 nM | relative peak heights of the ESR signals (mean±range, n=2) ([2]; 200 nM, 1×10^6 MCF-7 cells, 5 min at 37° C.): 99±1 mm | MIC IC50 (ratio MIC/IC50) (T. gondii): 4.3 | MIC (uM) Plaque Suppression (T. gondii; [6]): 0.175 ± 0.025 µM (≈ 0.0529 µg/mL) | concentration at which apoptotic HS68 cells were evident [3]: 500 nM | control of acute toxoplasmosis in mice (T. gondii tachyzoites [4]): showed in vivo efficacy

CCCC(CCC)C(=O)[O-].[Na+] [Valproic acid, sodium valproate]
IC50 (T. gondii tachyzoites [1]; [7]): 1600 ± 1120 µM | IC50 (T. gondii tachyzoites [1]; Toxoplasma gondii, RH strain in HS68 cells, read-out: IC50 range of carboxylate inhibitors): 1000 to 5000 µM | MIC IC50 (ratio MIC/IC50) (T. gondii): 5.2 | MIC (T. gondii; [6]): 8300 ± 1000 µM | control of acute toxoplasmosis in mice (T. gondii tachyzoites [4]): ineffective | therapeutic effect against RH T. gondii in mice (T. gondii tachyzoites [4]; doses up to 600 mg/kg/day, oral or intraperitoneal): not therapeutic | median survival (T. gondii tachyzoites [4]; i.p. 400 mg/kg and 600 mg/kg divided into 2 daily doses): 10 days | median survival (T. gondii tachyzoites [4]; oral dose of 600 mg/kg): 12 days

NC(=O)c1cccnc1 [nicotinamide]
activity against T. gondii in in vitro assays (T. gondii tachyzoites [1]): minimal activity
